Test: recombinant barcode read abundance after kanamycin selection (control-corrected) (log10(CPM+1)); higher = more efficient recombination; sequences stand for … in AGTGCAGAGAAAATCGGCCAGTTTTCTCTGCCTGCAGTCCGCATGCCGT…ATTTATGCAGCGGACTGCCTTTCTCCCAAAGTGATAAACCGGACAGTATCATGGACCGGTTTTCCCGGTAATCCGTATTTGCAAGGTTGGTTTCACT; site = the 11-nt target
Summary of the method: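 Recombination efficiency comes from barcode counts at recombinant junctions, converted to counts per million, averaged and corrected against the control. Values appear as log10(CPM+1). They were obtained from a pooled E. coli screen in which each oligo paired a target with an IS621 bridge RNA target-binding loop, and cells were plated in duplicate on chloramphenicol/ampicillin LB agar or on chloramphenicol/ampicillin/kanamycin with 0.1 mM IPTG.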

Row | Sequence | recombinant barcode read abundance (log10)
1 | ATGTCCCGGTGGGTTCTAACCTGTTGCTCCC [ATGTCCCCTGA_LTGcore_GG_RTGcore_GG] (site ATGTCCCCTGA) (LTG core: GG, RTG core: GG) | 0.109
2 | CATATTAAATGGGTTCTAACCTGTTGCCTTT [CATATTACTAG_LTGcore_AA_RTGcore_AA] (site CATATTACTAG) (LTG core: AA, RTG core: AA) | 1.4
3 | CATATTAACTGGGTTCTAACCTGTTGCCTGT [CATATTACTAG_LTGcore_AC_RTGcore_AC] (site CATATTACTAG) (LTG core: AC, RTG core: AC) | 0.119
4 | CATATTAAGTGGGTTCTAACCTGTTGCCTAG [CATATTACTAG_LTGcore_AG_RTGcore_CT] (site CATATTACTAG) (LTG core: AG, RTG core: CT) | 0.0215
5 | CATATTAATTGGGTTCTAACCTGTTGCCTAT [CATATTACTAG_LTGcore_AT_RTGcore_AT] (site CATATTACTAG) (LTG core: AT, RTG core: AT) | 0.0885
6 | CATATTACCTGGGTTCTAACCTGTTGCCTGG [CATATTACTAG_LTGcore_CC_RTGcore_CC] (site CATATTACTAG) (LTG core: CC, RTG core: CC) | 0.638
7 | CATATTACGTGGGTTCTAACCTGTTGCCTCG [CATATTACTAG_LTGcore_CG_RTGcore_CG] (site CATATTACTAG) (LTG core: CG, RTG core: CG) | 0.443
8 | CATATTACTTGGGTTCTAACCTGTTGCCTCG [CATATTACTAG_LTGcore_CT_RTGcore_CG] (site CATATTACTAG) (LTG core: CT, RTG core: CG) | 0.0475
9 | CATATTACTTGGGTTCTAACCTGTTGCCTGA [CATATTACTAG_LTGcore_CT_RTGcore_TC] (site CATATTACTAG) (LTG core: CT, RTG core: TC) | 0.138
10 | CATATTACTTGGGTTCTAACCTGTTGCCTGG [CATATTACTAG_LTGcore_CT_RTGcore_CC] (site CATATTACTAG) (LTG core: CT, RTG core: CC) | 0.0433
11 | CATATTATGTGGGTTCTAACCTGTTGCCTAG [CATATTACTAG_LTGcore_TG_RTGcore_CT] (site CATATTACTAG) (LTG core: TG, RTG core: CT) | 0.0521
12 | CGAGCCCAATGGGTTCTAACCTGTTGCTGAG [CGAGCCCCTCA_LTGcore_AA_RTGcore_CT] (site CGAGCCCCTCA) (LTG core: AA, RTG core: CT) | 0.0167
13 | CGAGCCCACTGGGTTCTAACCTGTTGCTGAG [CGAGCCCCTCA_LTGcore_AC_RTGcore_CT] (site CGAGCCCCTCA) (LTG core: AC, RTG core: CT) | 0.0532
14 | CGAGCCCAGTGGGTTCTAACCTGTTGCTGAG [CGAGCCCCTCA_LTGcore_AG_RTGcore_CT] (site CGAGCCCCTCA) (LTG core: AG, RTG core: CT) | 0.139
15 | CGAGCCCATTGGGTTCTAACCTGTTGCTGAT [CGAGCCCCTCA_LTGcore_AT_RTGcore_AT] (site CGAGCCCCTCA) (LTG core: AT, RTG core: AT) | 0.0704
16 | CGAGCCCCCTGGGTTCTAACCTGTTGCTGAG [CGAGCCCCTCA_LTGcore_CC_RTGcore_CT] (site CGAGCCCCTCA) (LTG core: CC, RTG core: CT) | 0.805
17 | CGAGCCCCTTGGGTTCTAACCTGTTGCTGAG [CGAGCCCCTCA_LTGcore_CT_RTGcore_CT] (site CGAGCCCCTCA) (LTG core: CT, RTG core: CT) | 2.65
18 | CGAGCCCCTTGGGTTCTAACCTGTTGCTGGG [CGAGCCCCTCA_LTGcore_CT_RTGcore_CC] (site CGAGCCCCTCA) (LTG core: CT, RTG core: CC) | 0.164
19 | CGAGCCCCTTGGGTTCTAACCTGTTGCTGTC [CGAGCCCCTCA_LTGcore_CT_RTGcore_GA] (site CGAGCCCCTCA) (LTG core: CT, RTG core: GA) | 0.248
20 | CGAGCCCCTTGGGTTCTAACCTGTTGCTGTT [CGAGCCCCTCA_LTGcore_CT_RTGcore_AA] (site CGAGCCCCTCA) (LTG core: CT, RTG core: AA) | 0.266
21 | CGAGCCCGATGGGTTCTAACCTGTTGCTGTC [CGAGCCCCTCA_LTGcore_GA_RTGcore_GA] (site CGAGCCCCTCA) (LTG core: GA, RTG core: GA) | 0.188
22 | CGAGCCCTGTGGGTTCTAACCTGTTGCTGCA [CGAGCCCCTCA_LTGcore_TG_RTGcore_TG] (site CGAGCCCCTCA) (LTG core: TG, RTG core: TG) | 0.646

Row | Sequence | recombinant barcode read abundance (log10)
23 | CGCGCCCCATGGGTTCTAACCTGTTGCGGAG [CGCGCCCCTCC_LTGcore_CA_RTGcore_CT] (site CGCGCCCCTCC) (LTG core: CA, RTG core: CT) | 0.303
24 | CGCGCCCCATGGGTTCTAACCTGTTGCGGTG [CGCGCCCCTCC_LTGcore_CA_RTGcore_CA] (site CGCGCCCCTCC) (LTG core: CA, RTG core: CA) | 0.162
25 | CGCGCCCCCTGGGTTCTAACCTGTTGCGGGG [CGCGCCCCTCC_LTGcore_CC_RTGcore_CC] (site CGCGCCCCTCC) (LTG core: CC, RTG core: CC) | 0.117
26 | CGCGCCCCGTGGGTTCTAACCTGTTGCGGAG [CGCGCCCCTCC_LTGcore_CG_RTGcore_CT] (site CGCGCCCCTCC) (LTG core: CG, RTG core: CT) | 0.167
27 | CGCGCCCCGTGGGTTCTAACCTGTTGCGGCG [CGCGCCCCTCC_LTGcore_CG_RTGcore_CG] (site CGCGCCCCTCC) (LTG core: CG, RTG core: CG) | 0
28 | CGCGCCCCTTGGGTTCTAACCTGTTGCGGAA [CGCGCCCCTCC_LTGcore_CT_RTGcore_TT] (site CGCGCCCCTCC) (LTG core: CT, RTG core: TT) | 0.319
29 | CGCGCCCCTTGGGTTCTAACCTGTTGCGGCC [CGCGCCCCTCC_LTGcore_CT_RTGcore_GG] (site CGCGCCCCTCC) (LTG core: CT, RTG core: GG) | 0.215
30 | CGCGCCCCTTGGGTTCTAACCTGTTGCGGGG [CGCGCCCCTCC_LTGcore_CT_RTGcore_CC] (site CGCGCCCCTCC) (LTG core: CT, RTG core: CC) | 0.105
31 | CGCGCCCGGTGGGTTCTAACCTGTTGCGGCC [CGCGCCCCTCC_LTGcore_GG_RTGcore_GG] (site CGCGCCCCTCC) (LTG core: GG, RTG core: GG) | 0.307
32 | CGCGCCCTGTGGGTTCTAACCTGTTGCGGAG [CGCGCCCCTCC_LTGcore_TG_RTGcore_CT] (site CGCGCCCCTCC) (LTG core: TG, RTG core: CT) | 0.301
33 | CGGTCCCCTTGGGTTCTAACCTGTTGCCACC [CGGTCCCCTTG_LTGcore_CT_RTGcore_GG] (site CGGTCCCCTTG) (LTG core: CT, RTG core: GG) | 0.18
34 | CGGTCCCTATGGGTTCTAACCTGTTGCCATA [CGGTCCCCTTG_LTGcore_TA_RTGcore_TA] (site CGGTCCCCTTG) (LTG core: TA, RTG core: TA) | 0.282
35 | CGGTCCCTGTGGGTTCTAACCTGTTGCCAAG [CGGTCCCCTTG_LTGcore_TG_RTGcore_CT] (site CGGTCCCCTTG) (LTG core: TG, RTG core: CT) | 0.0242
36 | CGGTCCCTTTGGGTTCTAACCTGTTGCCAAA [CGGTCCCCTTG_LTGcore_TT_RTGcore_TT] (site CGGTCCCCTTG) (LTG core: TT, RTG core: TT) | 0.0728
37 | GAGCCCAAATGGGTTCTAACCTGTTGCCTAG [GAGCCCACTAG_LTGcore_AA_RTGcore_CT] (site GAGCCCACTAG) (LTG core: AA, RTG core: CT) | 0.0475
38 | GAGCCCACTTGGGTTCTAACCTGTTGCCTCA [GAGCCCACTAG_LTGcore_CT_RTGcore_TG] (site GAGCCCACTAG) (LTG core: CT, RTG core: TG) | 0.593
39 | GAGCCCACTTGGGTTCTAACCTGTTGCCTCG [GAGCCCACTAG_LTGcore_CT_RTGcore_CG] (site GAGCCCACTAG) (LTG core: CT, RTG core: CG) | 0.1
40 | GAGCCCACTTGGGTTCTAACCTGTTGCCTTA [GAGCCCACTAG_LTGcore_CT_RTGcore_TA] (site GAGCCCACTAG) (LTG core: CT, RTG core: TA) | 0.296
41 | GAGCCCAGATGGGTTCTAACCTGTTGCCTAG [GAGCCCACTAG_LTGcore_GA_RTGcore_CT] (site GAGCCCACTAG) (LTG core: GA, RTG core: CT) | 0.163
42 | GAGCCCAGATGGGTTCTAACCTGTTGCCTTC [GAGCCCACTAG_LTGcore_GA_RTGcore_GA] (site GAGCCCACTAG) (LTG core: GA, RTG core: GA) | 0.057
43 | GAGCCCATATGGGTTCTAACCTGTTGCCTAG [GAGCCCACTAG_LTGcore_TA_RTGcore_CT] (site GAGCCCACTAG) (LTG core: TA, RTG core: CT) | 0.101

— the supplement of paper PMC11208160
